Test results reported in US20030022792A1, “HERBICIDAL COMPOSITIONS FOR TOLERANT OR RESISTANT CEREAL CROPS” (priority 1998, published 2003).

How the values were obtained:
Assay type in all cases: in vivo
Alopecurus myosuroides = assay: Field trial with cereals (wheat), herbicidal action; conditions: application at start of stocking, scoring 3 weeks after application
Method: (§1) Transgenic cereal plants with a resistance to one or more herbicides (A) together with typical weed plants were grown in the open on 2×5 m plots under natural field conditions; alternatively, weed infestation occurred naturally when the cereal plants were grown.
(§2) […] The damage to, and the development of, all aerial parts of the plants was recorded. Scoring was done on the basis of a percentage sale (100% action=all plants destroyed; 50% action=50% of the plants and green parts of the plants destroyed; 0% action=no recognizable effect=like control plot. The mean of the score values of in each case 4 plots was calculated.

Digitaria Sanguinalis = assay: as above; conditions: application at start of stocking, scoring 3 weeks after application
Method: as §1, §2

Ambrosia maritima = assay: Field trial with cereal (wheat), herbicidal action; conditions: application at start of stocking, scoring 11 days after application
Method: as §1, §2

Lolium multiflorum = assay: Field trial with cereal (wheat), herbicidal action; conditions: for Herbicidal action (%) against Lolium multiflorum: scoring 27 days after application
Method: as §1, §2

Galium aparine = assay: Field trial with cereal (wheat), herbicidal action; conditions: application at 4-leaf stage, scoring 28 days after application
Method: as §1
(§3) 2, 4, 6 and 8 weeks after the application, the herbicidal activity of the active substances or active substance mixtures was scored visually with reference to the treated plots in comparison to untreated control plots. The damage to, and the development of, all aerial parts of the plants was recorded. Scoring was done on the basis of a percentage sale (100% action=all plants destroyed; 50% action=50% of the plants and green parts of the plants destroyed; 0% action=no recognizable effect=like control plot. The mean of the score values of in each case 4 plots was calculated.

Lamium purpureum = assay: Field trial with cereal (wheat), herbicidal action; conditions: application at 4-leaf stage, scoring 28 days after application
Method: as §1, §3

[1] = Lolium multiflorum, read-out: Herbicidal action (%) against Lolium multiflorum

For `CP(=O)(O)CCC(N)C(=O)O` (centres unmarked) [(A1.2), glufosinate-ammonium], the “Herbicidal action (%) against Alopecurus myosuroides” value (Alopecurus myosuroides; 200 g of a.s./ha) was 55%, the “Herbicidal action (%) against Alopecurus myosuroides” value (Alopecurus myosuroides; 400 g of a.s./ha) was 83% and the “Herbicidal action (%) against Alopecurus myosuroides” value (Alopecurus myosuroides; 600 g of a.s./ha) was 93%. The “Herbicidal action (%) against Digitaria Sanguinalis” value (Digitaria Sanguinalis; 200 g of a.s./ha) was 45%, the “Herbicidal action (%) against Digitaria Sanguinalis” value (Digitaria Sanguinalis; 400 g of a.s./ha) was 90% and the “Herbicidal action (%) against Digitaria Sanguinalis” value (Digitaria Sanguinalis; 600 g of a.s./ha) was 99%. For the same compound, the “Herbicidal action (%) against Ambrosia maritima” value (Ambrosia maritima; 200 g of a.s./ha) was 58%, the “Herbicidal action (%) against Ambrosia maritima” value (Ambrosia maritima; 400 g of a.s./ha) was 100% and the “Herbicidal action (%) against Ambrosia maritima” value (Ambrosia maritima; 600 g of a.s./ha) was 100%. For the same compound, the pest or weed control at 200 g/ha (Lolium multiflorum; [1]) was 0%, the pest or weed control at 330 g/ha (Lolium multiflorum; [1]) was 15% and the pest or weed control at 500 g/ha (Lolium multiflorum; [1]) was 78%. The “Herbicidal action (%) against Galium aparine” value (Galium aparine; 100 g of a.s./ha) was 0%, the “Herbicidal action (%) against Galium aparine” value (Galium aparine; 200 g of a.s./ha) was 0% and the “Herbicidal action (%) against Galium aparine” value (Galium aparine; 300 g of a.s./ha) was 0%. The “Herbicidal action (%) against Lamium purpureum” value (Lamium purpureum; 200 g of a.s./ha) was 8% and the “Herbicidal action (%) against Lamium purpureum” value (Lamium purpureum; 330 g of a.s./ha) was 35%.
`CCc1cnc(C2=NC(C)(C(C)C)C(=O)N2)c(C(=O)O)c1` (centres unmarked) [(A3.2), imazethapyr] was tested, and the pest or weed control at 70 g/ha (Lolium multiflorum; Lolium multiflorum, wheat field trial, 70 g of a.s./ha, application at 3-leaf stage, scoring after application, read-out: Herbicidal action (%) against Lolium multiflorum) was 0%.
Work on `CC(C)c1ccc(NC(=O)N(C)C)cc1` [(B1.1.1), isoproturon] yielded a pest or weed control at 1500 g/ha (Lolium multiflorum; Lolium multiflorum, wheat field trial, 1500 g of a.s./ha, application at 3-leaf stage, scoring after application, read-out: Herbicidal action (%) against Lolium multiflorum) of 55%.
`CC(C)N(C(=O)COc1nnc(C(F)(F)F)s1)c1ccc(F)cc1` [(B1.1.3), fluthiamide] showed a pest or weed control at 180 g/ha (Lolium multiflorum; Lolium multiflorum, wheat field trial, 180 g of a.s./ha, application at 3-leaf stage, scoring after application, read-out: Herbicidal action (%) against Lolium multiflorum) of 25%.
`CCC(CC)Nc1c([N+](=O)[O-])cc(C)c(C)c1[N+](=O)[O-]` [(B1.1.5), pendimethalin] was tested, and the “Herbicidal action (%) against Lamium purpureum” value (Lamium purpureum; 960 g of a.s./ha) was 75%.
`C#CCOC(=O)[C@@H](C)Oc1ccc(Oc2ncc(Cl)cc2F)cc1` [(B1.2.2), clodinafop-propargyl] was tested, and the pest or weed control at 50 g/ha (Lolium multiflorum; Lolium multiflorum, wheat field trial, 50 g of a.s./ha, application at 3-leaf stage, scoring after application, read-out: Herbicidal action (%) against Lolium multiflorum) was 73%.
In the case of `COC(=O)C(C)Oc1ccc(Oc2ccc(Cl)cc2Cl)cc1` (centres unmarked) [(B1.2.3), diclofop-methyl], the “Herbicidal action (%) against Lolium multiflorum” value (Lolium multiflorum; wheat field trial, 500 g of a.s./ha, application at 3-leaf stage) is reported as 60% and the “Herbicidal action (%) against Lolium multiflorum” value (Lolium multiflorum; wheat field trial, 750 g of a.s./ha, application at 3-leaf stage) is reported as 83%.
`COc1cc(OC)nc(NC(=O)NS(=O)(=O)c2nc(C(F)(F)F)ccc2C(=O)O)n1` [(B1.2.6), flupyrsulfuron] showed a pest or weed control at 7.5 g/ha (Lolium multiflorum; [1]) of 25%.
For `COC(=O)c1ccccc1S(=O)(=O)NC(=O)Nc1nc(C)nc(OC)n1` [(B2.1), metsulfuron-methyl], the “Herbicidal action (%) against Lamium purpureum” value (Lamium purpureum; 3 g of a.s./ha) was 75%.
`COC(=O)c1ccc(NS(C)(=O)=O)cc1S(=O)(=O)NC(=O)Nc1nc(OC)cc(OC)n1` [(B2.3), methyl 4-methylsulfonylamino-2-(4,6-dimethoxypyrimidin-2-ylcarbamoylsulfamoyl)benzoate] showed a pest or weed control at 5 g/ha (Lolium multiflorum; Lolium multiflorum, wheat field trial, 5 g of a.s./ha, application at 3-leaf stage, scoring after application, read-out: Herbicidal action (%) against Lolium multiflorum) of 65%.
Compound `CCS(=O)(=O)c1nc2ccccn2c1S(=O)(=O)NC(=O)Nc1nc(OC)cc(OC)n1` [(B2.6), sulfosulfuron] has a pest or weed control at 20 g/ha (Lolium multiflorum; Lolium multiflorum, wheat field trial, 20 g of a.s./ha, application at 3-leaf stage, scoring after application, read-out: Herbicidal action (%) against Lolium multiflorum) of 35%.
`COC(=O)c1ccccc1S(=O)(=O)NC(=O)N(C)c1nc(C)nc(OC)n1` [(B4.1.1), tribenuron-methyl] was tested, and the “Herbicidal action (%) against Lamium purpureum” value (Lamium purpureum; 15 g of a.s./ha) was 68%.
For `COc1cc(OC)nc(NC(=O)NS(=O)(=O)N(C)S(C)(=O)=O)n1` [(B4.1.2), amidosulfuron], the “Herbicidal action (%) against Galium aparine” value (Galium aparine; 20 g of a.s./ha) was 75%.
For `CCOC(=O)/C(Cl)=C/c1cc(N2C(=O)C3=C(CCCC3)C2=O)ccc1Cl` [(B4.1.6), cinidon-ethyl], the “Herbicidal action (%) against Galium aparine” value (Galium aparine; 35 g of a.s./ha) was 65%.
`Cc1cc(Cl)ccc1O[C@@H](C)C(=O)O` [(B4.2.2), CMPP-P] was tested, and the “Herbicidal action (%) against Galium aparine” value (Galium aparine; 750 g of a.s./ha) was 73%.
With `Cc1cc(Cl)ccc1OCC(=O)O` [(B4.2.4), MCPA] the “Herbicidal action (%) against Ambrosia maritima” value (Ambrosia maritima; 500 g of a.s./ha) was 0%.
With `Nc1c(Cl)c(F)nc(OCC(=O)O)c1Cl` [(B4.2.5), fluroxypyr] the “Herbicidal action (%) against Galium aparine” value (Galium aparine; 120 g of a.s./ha) was 75%.
For `N#Cc1cc(Br)c(O)c(Br)c1` [(B4.3.1), bromoxynil], the “Herbicidal action (%) against Lamium purpureum” value (Lamium purpureum; 180 g of a.s./ha) was 55% and the “Herbicidal action (%) against Lamium purpureum” value (Lamium purpureum; 360 g of a.s./ha) was 83%.
`CCOC(=O)C(Cl)Cc1cc(-n2nc(C)n(C(F)F)c2=O)c(F)cc1Cl` (centres unmarked) [(B4.4.1), carfentrazone-ethyl] was tested, and the “Herbicidal action (%) against Galium aparine” value (Galium aparine; 10 g of a.s./ha) was 45% and the “Herbicidal action (%) against Galium aparine” value (Galium aparine; 20 g of a.s./ha) was 55%.
With `CCOC(=O)COc1cc(-c2nn(C)c(OC(F)F)c2Cl)c(F)cc1Cl` [(B4.4.2), pyraflufen-ethyl] the “Herbicidal action (%) against Alopecurus myosuroides” value (Alopecurus myosuroides; 10 g of a.s./ha) was 0% and the “Herbicidal action (%) against Digitaria Sanguinalis” value (Digitaria Sanguinalis; 10 g of a.s./ha) was 0%.
Work on `O=C(Nc1ccc(F)cc1F)c1cccnc1Oc1cccc(C(F)(F)F)c1` [Diflu, diflufenican] yielded a pest or weed control at 150 g/ha (Lolium multiflorum; Lolium multiflorum, wheat field trial, 150 g of a.s./ha, application at 3-leaf stage, scoring after application, read-out: Herbicidal action (%) against Lolium multiflorum) of 35%.
